Measured values from patent US8067628B2 (priority 2008, dated 2011).
Where two headings read alike, the source gives them in different places.

Legend:
[1] = system: line K562 cells of human erythroblast leukemia; assay: Apoptotic activity, caspase-3/-7 FLICA (FAM-DEVD-FMK) flow cytometry; format: cell-based; details: incubation 75 hours
Description: A method for determining activity of caspases is based on the use of fluorochromic inhibitors of caspases (FLICA). These inhibitors are capable of penetrating into a cell while not being cytotoxic. Within the cell FLICA-inhibitor is covalently bound to active caspase.
The freeze-dried reagent FAM-DEVD-FMK for determining caspase-3 and caspase-7 was experimentally used to test apoptotic cells. When FAM-DEVD-FMK is added to a cellular population of cells, it penetrates into each cell wherein covalent binding thereof to a large subunit of an active caspase heterodimer occurs and thus, it inhibits enzymatic activity. The reagent covalently bound to the enzyme remains inside the cell. […]
Upon termination of incubation term, the cells were centrifuged for 5 minutes at 1,200 rpm at room temperature (RT). […] Sample aliquots of induced and non-induced cells were taken, 2 μl reagent propidium iodide (PI) ready for use were added and the mixture was incubated at RT for 10 minutes to stain dead cells.
Fluorescence of all cell specimens was analyzed on a liquid citometer Backton Dikenson Fascaliber using a laser with 488 nm wavelength. […] In a left lower quadrant live cells were determined; in a right lower quadrant positive FLICA cells (FLICA+) were determined; in a left upper quadrant stained PI cells were determined, and in a right upper quadrant stained PI and FLICA+ cells were determined. […]

[2] = system: line K562 human erythroblastic leukemia and A549 non-small cell lung cancer cells; assay: Cytotoxicity, MTT-test on human cancer cells in vitro; format: cell-based
Description: Cells of line K562 human erythroblastic leukemia and A549 non-small cell lung cancer were used as the study object. The cells were grown in the RMPI1640 medium comprising 10% fetal bovine serum at 37° C., 5% CO2 and 100% humidity.
The cytotoxic activity testing was carried out by the standard MTT-test using 96-well plates. Seeding density of cells was 5,000 cells in a well. The cells K562 and A549 were incubated with the complexes I and II at concentrations 1 μM, 10 μM or 100 μM for 72 hours.
MTT-test is based on the capability of dehydrogenases of live cells to reduce unstained MTT-reagent to the blue crystals of formazan crystals soluble in dimethylsulfoxide (DMSO). The optic absorption of stained DMSO solutions was measured on an automated counter. The cytotoxic activity was assessed in percent by the survival of the cells and calculated according to the formula: (mean value of optic absorption in test samples/mean absorption in the control)×100. IC50 was determined by a “dose-effect” curve.

[3] = NO-donor activity, sensor electrode amiNO-700 in water; details: aerobic aqueous solutions; for spontaneous NO generation: 25° C., no chemo-, photo- or enzymatic activation; for duration of NO release: compared with binuclear nitrosyl iron complexes with aromatic thiolyls
Description: The sensor electrode “amiNO-700” of the system “inNO Nitric Oxide Measuring System” (Innovative Instruments, Inc., Tampa, Fla., USA) was used to determine NO generated by the complexes I and II in water. NO concentration was recorded for ˜1,600 seconds (with a step of 0.2 seconds) with concentration of NO donor (0.1 μmol). A standard aqueous solution of NaNO2 (100 μmol) to which a mixture of 0.12M KCl and 2 ml 1M H2SO4 in 18 ml water was added was used to calibrate the electrochemical sensor. All the experiments were carried out in aerobic solutions at temperature 25° C. pH of solutions was measured using the membrane pH-meter “HI 8314” (HANNA Instruments, Germany).

[4] = format: physicochemical
Description: Distilled water used in the synthesis required preliminary preparation to remove oxygen dissolved therein. To this end, a flow of inert gas (argon or nitrogen) was passed through a flask with distilled water for 30 minutes. 0.84 grams (3 mmol) iron sulphate heptahydrate were dissolved in 12 ml prepared distilled water. To this solution, 0.40 g (3.5 mmol) cystamine hydrochloride dissolved in 8 ml water was added to this solution. Nitrogen monoxide flow prepared according to the technique [Yu. V. Karyakin and I. I. Angeov. Chistiye khimicheskiye veshchestva (Pure chemical substances), Moscow: Khimiya publishing house, 1974, 23] was passed through the prepared solution for 1 to 1.5 hours at ˜40° C. until crystals were formed in the solution. Reaction mixture was then allowed to stand at 6 to 8° C. for 15 to 20 hrs; a formed brown-red fine crystalline precipitate was filtered off and dried in air for 24 hours. Yield was […] (16.5%).
Di-μ-penicillamine-tetranitrosyl di-iron sulphate (Fe2S3N6C10H32O17) (II) was prepared by reacting iron sulphate (II) with D-penicillamine in a ratio 1:3. The reaction was carried out using a standard vacuum line and Shlenk's technology under nitrogen at room temperature. Oxygen was preliminary removed from water using the method of triplicate freezing and pumping off under vacuum. […]

| Substance | cells in apoptosis [1] [%] | initiation of caspase 3 and 7 activity / induction of apoptosis ([1]; concentration 50 μl) | IC50 [2] [µM] | spontaneous NO generation [3] | duration of NO release [3] | stability of polycrystals in air [4] | IC50 ([2]; MTT-test, 72 hours, K562 and A549 cells (cell line of the value not stated), read-out: IC50 (cytotoxic activity, cell survival)) [µM] | stability of product in the absence of inert atmosphere [4] |
| --- | --- | --- | --- | --- | --- | --- | --- | --- |
| Di-μ-cystamine tetranitrosyl di-iron sulphate [complex I] | 77 | exhibited capability of initiating caspase 3 and 7 activity | 50 | generate NO in aerobic aqueous solutions | prolonged release of NQ | remain stable in air at room temperature for a rather long time |  |  |
| Di-μ-penicillamine-tetranitrosyl di-iron sulphate [complex II] |  |  |  | generate NO in aerobic aqueous solutions | prolonged release of NQ |  | 100 | stable in the absence of inert atmosphere for a long time |
